The data set concerns the target T1, human TLR9 (Homo sapiens, UniProt Q9NR96).
T1 construct: HA; host or cells: 293XL-hTLR9-HA (HEK293)
T1 sequence (Q9NR96 26-1032): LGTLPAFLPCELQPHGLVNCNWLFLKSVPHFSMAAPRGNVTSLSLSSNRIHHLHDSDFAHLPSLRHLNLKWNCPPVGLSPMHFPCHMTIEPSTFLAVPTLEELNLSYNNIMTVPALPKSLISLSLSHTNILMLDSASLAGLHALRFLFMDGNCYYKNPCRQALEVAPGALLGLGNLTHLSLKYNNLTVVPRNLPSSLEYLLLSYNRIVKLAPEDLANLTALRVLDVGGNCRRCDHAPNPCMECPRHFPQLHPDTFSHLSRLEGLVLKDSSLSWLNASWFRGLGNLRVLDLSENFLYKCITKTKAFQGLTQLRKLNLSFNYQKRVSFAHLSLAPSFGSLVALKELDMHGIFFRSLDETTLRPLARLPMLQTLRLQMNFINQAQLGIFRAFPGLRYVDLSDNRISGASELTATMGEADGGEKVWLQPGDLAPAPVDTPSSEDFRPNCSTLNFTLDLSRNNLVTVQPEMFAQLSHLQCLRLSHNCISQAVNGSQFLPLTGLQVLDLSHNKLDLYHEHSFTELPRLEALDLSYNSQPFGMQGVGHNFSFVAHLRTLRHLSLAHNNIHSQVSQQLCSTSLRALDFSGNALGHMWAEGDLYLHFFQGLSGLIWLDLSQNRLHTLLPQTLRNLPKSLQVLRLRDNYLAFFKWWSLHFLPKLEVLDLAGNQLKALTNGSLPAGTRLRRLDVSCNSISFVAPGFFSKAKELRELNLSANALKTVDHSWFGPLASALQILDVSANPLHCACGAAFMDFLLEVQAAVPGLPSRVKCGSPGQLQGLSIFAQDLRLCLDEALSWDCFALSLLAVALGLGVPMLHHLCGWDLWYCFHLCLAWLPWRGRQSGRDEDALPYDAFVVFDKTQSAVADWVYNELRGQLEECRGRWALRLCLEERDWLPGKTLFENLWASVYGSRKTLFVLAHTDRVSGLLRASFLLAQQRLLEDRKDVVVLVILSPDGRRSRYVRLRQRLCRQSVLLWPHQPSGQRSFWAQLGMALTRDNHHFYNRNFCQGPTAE
The experiment in a line: HEK-TLR9 NF-κB-luciferase reporter, ODN2006 stimulation. The class given is cell-based. Conditions: for TLR9 100 nM (averaged NF-κB-Luciferase level relative to ODN2006 condition): ASO 100 nM; for TLR9 100 nM (averaged NF-κB-Luciferase level relative to ODN2006 condition) / TLR9 500 nM (averaged NF-κB-Luciferase level relative to ODN2006 condition): relative to ODN2006 only, given as fraction; for TLR9 500 nM (averaged NF-κB-Luciferase level relative to ODN2006 condition): ASO 500 nM. In general terms: In a reporter assay the amount or activity of a reporter protein is the signal.

Take “AAAGGACTGAGGAAAG (antisense; LNA-modified, pattern not given here) [CAMSAP1-6273 LNA KL]”: the “TLR9 100 nM (averaged NF-κB-Luciferase level relative to ODN2006 condition)” value came to 0.780 and the “TLR9 500 nM (averaged NF-κB-Luciferase level relative to ODN2006 condition)” value stood at 0.185.

As to “AACACTTCGTGGGGTC (antisense; LNA-modified, pattern not given here) [HPRT LNA-666 V1]”, the “TLR9 100 nM (averaged NF-κB-Luciferase level relative to ODN2006 condition)” value is 1.104 and the “TLR9 500 nM (averaged NF-κB-Luciferase level relative to ODN2006 condition)” value turned out to be 0.475.

As to “AACCCCTTTCACCATC (antisense; LNA-modified, pattern not given here) [MB21D1-689 LNA KL]”, the “TLR9 100 nM (averaged NF-κB-Luciferase level relative to ODN2006 condition)” value is reported as 0.586 and the “TLR9 500 nM (averaged NF-κB-Luciferase level relative to ODN2006 condition)” value is on record as 0.076.

Regarding “AATCCAACAAAGTCTG (antisense; LNA-modified, pattern not given here) [HPRT LNA-692 KL]”, the “TLR9 100 nM (averaged NF-κB-Luciferase level relative to ODN2006 condition)” value is listed as 1.050 and the “TLR9 500 nM (averaged NF-κB-Luciferase level relative to ODN2006 condition)” value is 0.529.

On to “ACACTTCGTGGGGTCCTTTT (antisense; 2'-MOE modified, pattern not given here) [HPRT-663 MOE]”, for which, under “HEK-TLR9, 100 nM MOE ASO 45 min, 200 nM ODN2006 (FIG. 30)”, the “inhibition of TLR9, 2′MOE ASOs (in words)” value is “stronger inhibitor than 664/665 and 666 ASOs”. For the same sequence, the “TLR9 100 nM” value (MOE-modified ASO at 100 nM, averaged NF-κB-Luciferase relative to ODN2006 condition) was found to be 0.114. Moreover, under “MOE-modified ASO at 500 nM, averaged NF-κB-Luciferase relative to ODN2006 condition”, the “TLR9 500 nM” value turned out to be 0.226.

In the case of “ACCACGTCTGCTCTAA (antisense; LNA-modified, pattern not given here) [CAMSAP1-1635 LNA KL]”, the “TLR9 100 nM (averaged NF-κB-Luciferase level relative to ODN2006 condition)” value amounted to 0.842 and the “TLR9 500 nM (averaged NF-κB-Luciferase level relative to ODN2006 condition)” value is given as 0.162.

For “ACGTTCAGTCCTGTCC (antisense; LNA-modified, pattern not given here) [HPRT LNA-294 V1]”, the “TLR9 100 nM (averaged NF-κB-Luciferase level relative to ODN2006 condition)” value came to 0.427 and the “TLR9 500 nM (averaged NF-κB-Luciferase level relative to ODN2006 condition)” value was found to be 0.198.

As for “ACTTCGTGGGGTCCTT (antisense; LNA-modified, pattern not given here) [HPRT LNA-663 V1]”, the “TLR9 100 nM (averaged NF-κB-Luciferase level relative to ODN2006 condition)” value was 0.377 and the “TLR9 500 nM (averaged NF-κB-Luciferase level relative to ODN2006 condition)” value came to 0.377.

For the sequence “AGATTTCAGAGCAGCT (antisense; LNA-modified, pattern not given here) [EGFR-4885 LNA KL]”, the “TLR9 100 nM (averaged NF-κB-Luciferase level relative to ODN2006 condition)” value came to 0.848 and the “TLR9 500 nM (averaged NF-κB-Luciferase level relative to ODN2006 condition)” value is on record as 0.438.

For “AGCTTCGAGGCCCCAG (antisense; LNA-modified, pattern not given here) [MB21D1-616 LNA V1]”, the “TLR9 100 nM (averaged NF-κB-Luciferase level relative to ODN2006 condition)” value came out at 0.114 and the “TLR9 500 nM (averaged NF-κB-Luciferase level relative to ODN2006 condition)” value is given as 0.085.

Consider “AGGACTCCAGATGTTT (antisense; LNA-modified, pattern not given here) [HPRT LNA pos cont]”, for which the “TLR9 100 nM (averaged NF-κB-Luciferase level relative to ODN2006 condition)” value is listed as 0.816 and the “TLR9 500 nM (averaged NF-κB-Luciferase level relative to ODN2006 condition)” value worked out at 0.511.

For “AGGCCCTTCGCACTTC (antisense; LNA-modified, pattern not given here) [EGFR-1225 LNA V1]”, the “TLR9 100 nM (averaged NF-κB-Luciferase level relative to ODN2006 condition)” value was 0.576 and the “TLR9 500 nM (averaged NF-κB-Luciferase level relative to ODN2006 condition)” value stood at 0.211.

“AGGTCTTGGCTTCGTG (antisense; LNA-modified, pattern not given here) [MB21D1-524 LNA V1]”: the “TLR9 100 nM (averaged NF-κB-Luciferase level relative to ODN2006 condition)” value is listed as 0.975 and the “TLR9 500 nM (averaged NF-κB-Luciferase level relative to ODN2006 condition)” value was determined as 0.383.

On to “AGTGTTGAGATACTCG (antisense; LNA-modified, pattern not given here) [EGFR-3652 LNA KL]”, for which the “TLR9 100 nM (averaged NF-κB-Luciferase level relative to ODN2006 condition)” value was found to be 0.982 and the “TLR9 500 nM (averaged NF-κB-Luciferase level relative to ODN2006 condition)” value came to 0.540.

In the case of “ATCTGGCAGCCCATCA (antisense; LNA-modified, pattern not given here) [CTNN2B-2516 LNA V1]”, the “TLR9 100 nM (averaged NF-κB-Luciferase level relative to ODN2006 condition)” value came to 1.248 and the “TLR9 500 nM (averaged NF-κB-Luciferase level relative to ODN2006 condition)” value worked out at 0.603.

As for “ATGGCCTCCCATCTCC (antisense; LNA-modified, pattern not given here) [HPRT LNA-330 V1]”, the “TLR9 100 nM (averaged NF-κB-Luciferase level relative to ODN2006 condition)” value is on record as 0.511 and the “TLR9 500 nM (averaged NF-κB-Luciferase level relative to ODN2006 condition)” value was 0.244.

In the case of “ATGTGATGGCCTCCCA (antisense; LNA-modified, pattern not given here) [HPRT LNA-335 V1]”, the “TLR9 100 nM (averaged NF-κB-Luciferase level relative to ODN2006 condition)” value is given as 0.776 and the “TLR9 500 nM (averaged NF-κB-Luciferase level relative to ODN2006 condition)” value stood at 0.451.

Take “CACTTCGTGGGGTCCT (antisense; LNA-modified, pattern not given here) [HPRT LNA-664 V1]”: the “TLR9 100 nM (averaged NF-κB-Luciferase level relative to ODN2006 condition)” value came out at 0.215 and the “TLR9 500 nM (averaged NF-κB-Luciferase level relative to ODN2006 condition)” value was 0.074.

Turning to “CATCCACCACGTCGTC (antisense; LNA-modified, pattern not given here) [EGFR-3266 LNA V1]”, the “TLR9 100 nM (averaged NF-κB-Luciferase level relative to ODN2006 condition)” value was 0.722 and the “TLR9 500 nM (averaged NF-κB-Luciferase level relative to ODN2006 condition)” value came to 0.620.

Turning to “CCAACACTTCGTGGGG (antisense; LNA-modified, pattern not given here) [HPRT LNA-668 V1]”, the “TLR9 100 nM (averaged NF-κB-Luciferase level relative to ODN2006 condition)” value was determined as 1.065 and the “TLR9 500 nM (averaged NF-κB-Luciferase level relative to ODN2006 condition)” value is on record as 0.610.

As to “CCACATCCTGTGGCTC (antisense; LNA-modified, pattern not given here) [CAMSAP1-2906 LNA V1]”, the “TLR9 100 nM (averaged NF-κB-Luciferase level relative to ODN2006 condition)” value amounted to 0.338 and the “TLR9 500 nM (averaged NF-κB-Luciferase level relative to ODN2006 condition)” value stood at 0.337.

Turning to “CCACTTGGCAGACCAT (antisense; LNA-modified, pattern not given here) [CTNN2B-1575 LNA V1]”, the “TLR9 100 nM (averaged NF-κB-Luciferase level relative to ODN2006 condition)” value worked out at 1.112 and the “TLR9 500 nM (averaged NF-κB-Luciferase level relative to ODN2006 condition)” value worked out at 0.111.

On to “CCAGCAGGTCAGCAAA (antisense; LNA-modified, pattern not given here) [HPRT LNA-388 KL]”, for which the “TLR9 100 nM (averaged NF-κB-Luciferase level relative to ODN2006 condition)” value is reported as 0.736 and the “TLR9 500 nM (averaged NF-κB-Luciferase level relative to ODN2006 condition)” value came to 0.149.

For the sequence “CCCACTTGGCAGACCA (antisense; LNA-modified, pattern not given here) [CTNN2B-1576 LNA V1]”, the “TLR9 100 nM (averaged NF-κB-Luciferase level relative to ODN2006 condition)” value turned out to be 0.381 and the “TLR9 500 nM (averaged NF-κB-Luciferase level relative to ODN2006 condition)” value was 0.656.

Take “CCTCCCATCTCCTTCA (antisense; LNA-modified, pattern not given here) [HPRT LNA-326 V1]”: the “TLR9 100 nM (averaged NF-κB-Luciferase level relative to ODN2006 condition)” value is 1.010 and the “TLR9 500 nM (averaged NF-κB-Luciferase level relative to ODN2006 condition)” value was determined as 0.727.

On to “CCTTGCACGTGGCTTC (antisense; LNA-modified, pattern not given here) [EGFR-1013 LNA V1]”, for which the “TLR9 100 nM (averaged NF-κB-Luciferase level relative to ODN2006 condition)” value amounted to 0.814 and the “TLR9 500 nM (averaged NF-κB-Luciferase level relative to ODN2006 condition)” value came out at 0.519.

In the case of “CGCTTTTCTGTCTGGT (antisense; LNA-modified, pattern not given here) [CTNN2B-311 LNA KL]”, the “TLR9 100 nM (averaged NF-κB-Luciferase level relative to ODN2006 condition)” value is reported as 0.827 and the “TLR9 500 nM (averaged NF-κB-Luciferase level relative to ODN2006 condition)” value is 0.178.

As to “CGGCCTCGGAAGCTCT (antisense; LNA-modified, pattern not given here) [MB21D1-168 LNA V1]”, the “TLR9 100 nM (averaged NF-κB-Luciferase level relative to ODN2006 condition)” value is 0.218 and the “TLR9 500 nM (averaged NF-κB-Luciferase level relative to ODN2006 condition)” value turned out to be 0.116.

In the case of “CGTATTATAGCCGATT (antisense; LNA-modified, pattern not given here) [NC1 LNA PS 3-10-3]”, the “TLR9 100 nM (averaged NF-κB-Luciferase level relative to ODN2006 condition)” value came out at 0.933 and the “TLR9 500 nM (averaged NF-κB-Luciferase level relative to ODN2006 condition)” value was 0.558.

Take “CTGCAGCTTCCTTGTC (antisense; LNA-modified, pattern not given here) [CTNN2B-2136 LNA V1]”: the “TLR9 100 nM (averaged NF-κB-Luciferase level relative to ODN2006 condition)” value is 0.358 and the “TLR9 500 nM (averaged NF-κB-Luciferase level relative to ODN2006 condition)” value came to 0.263.

The record behind these values is patent publication US20240384268A1, “Oligonucleotides” (Hudson Institute of Medical Research, priority 2021, published 2024).
